Data from patent US20070248633A1, “COMPOSITIONS CONTAINING A HYDROXYLATED DIPHENYLMETHANE COMPOUND, METHODS OF USE” (L'OREAL, priority 2006, published 2007).

Test: Tests of solubilization of a hydroxylated diphenylmethane compound of formula (I) in solubilizers
Assay type: physicochemical
Conditions: for % max solubility of the hydroxylated diphenylmethane compound of formula (I): optionally heated to 45° C., stirred one hour
Protocol: The compound Phenylethylbenzendiol marketed under the name Symwhite® by Symrise is used as hydroxylated diphenylmethane compound of formula (I).
This compound is weighed and placed in a sealed specimen tube.
Several solubilizers are tested: 10 ml of solubilizer are placed in a beaker and the compound Phenylethylbenzendiol is added mg per mg. The suspension, optionally heated to 45° C., is stirred by magnetic stirring for one hour.
The dissolution or non-dissolution of the hydroxylated diphenylmethane compound of formula (I), and its variation over time are then monitored.
The non-solubility of the hydroxylated diphenylmethane compound of formula (I) in the solubilizer is macroscopically characterized by a precipitate or just a cloudy solution, and microscopically by the presence of crystals.

amount solubilized (solubilizer: 2-octyldodecanol): more than 20 % by weight
amount solubilized (solubilizer: Dicaprylyl carbonate): more than 20 % by weight
amount solubilized (solubilizer: dimethyl isosorbide): more than 20 % by weight
amount solubilized (solubilizer: isopropyl N-lauroylsarcosinate (remainder of the solution consisting of the solubilizer)): up to 42 % by weight
amount solubilized (solubilizer: octyl methoxycinnamate): more than 20 % by weight
% max solubility of the hydroxylated diphenylmethane compound of formula (I) (solvent: 2-Octyldodecanol (EUTANOL G from COGNIS)): 22.52%
% max solubility of the hydroxylated diphenylmethane compound of formula (I) (solvent: Apricot oil (APRICOT KERNEL OIL from DESERT WHALE)): 10.00%
% max solubility of the hydroxylated diphenylmethane compound of formula (I) (solvent: Apricot oil (APRICOT KERNEL OIL from DESERT WHALE), listed as hydroxylated diphenylmethane compound (I)): ≤ 10%
% max solubility of the hydroxylated diphenylmethane compound of formula (I) (solvent: Dicaprylyl carbonate (CETIOL CC from COGNIS)): 26.74%
% max solubility of the hydroxylated diphenylmethane compound of formula (I) (solvent: Dimethyl isosorbide (ARLASOLVE DMI from UNIQEMA)): 31.30%
% max solubility of the hydroxylated diphenylmethane compound of formula (I) (solvent: Hydrogenated isoparaffin (PARLEAM from NOF CORPORATION), paraffin oil): not soluble
% max solubility of the hydroxylated diphenylmethane compound of formula (I) (solvent: Hydrogenated isoparaffin (PARLEAM from NOF CORPORATION), paraffin oil, listed as hydroxylated diphenylmethane compound (I)): does not make it possible to solubilize
% max solubility of the hydroxylated diphenylmethane compound of formula (I) (solvent: Isopropyl N-lauroylsarcosinate (ELDEW SL 205 from AJINOMOTO)): 42.00%
% max solubility of the hydroxylated diphenylmethane compound of formula (I) (solvent: Octyl methoxycinnamate (PARSOL MCX from GIVAUDAN (DSM Nutritional Products))): 26.00%
SMILES: CC(c1ccccc1)c1ccc(O)cc1O (centres unmarked) [4-(1-phenylethyl)-1,3-benzenediol]
